The source of these data is the supplement of paper PMC10307832.

Test in all cases: relative viability (nuclei count vs DMSO), 5 days (fraction); higher = more cells survive
Compound in experiment [1]: CN1C=C(C2=CC=CC=C21)/C=C\3/C4=C(C=CC=N4)NC3=O + CC(=O)Nc1cccc(-n2c(=O)n(C3CC3)c(=O)c3c(Nc4ccc(I)cc4F)n(C)c(=O)c(C)c32)c1 [Trametinib] (partner 0.02 µM)
The method in brief:
(§1)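 A single step with final 0.05% Triton X-100, 1% formaldehyde and 1 ug/ml Hoechst fixed the cells and stained nuclei 5 days after treatment. Lung cancer cell lines in 1536-well plates had been treated by pin tool the day after seeding with one drug alone or a fixed anchor-drug dose plus five library-drug doses (not always all listed) in √10 steps, and nuclei were counted on 4× images. Relative viability is the ratio of nuclei in treated wells to nuclei in vehicle wells, taken as the median of duplicate plates.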

Compound in experiment [2]: CN1C=C(C2=CC=CC=C21)/C=C\3/C4=C(C=CC=N4)NC3=O + Cc1cc(Nc2cc(N3CCN(C)CC3)nc(Sc3ccc(NC(=O)C4CC4)cc3)n2)n[nH]1 [Tozasertib] (partner 0.1 µM)
The method in brief:
as §1

Compound in experiment [3]: CN1C=C(C2=CC=CC=C21)/C=C\3/C4=C(C=CC=N4)NC3=O + CS(=O)(=O)CCNCc1ccc(-c2ccc3ncnc(Nc4ccc(OCc5cccc(F)c5)c(Cl)c4)c3c2)o1 [Lapatinib] (partner 2 µM)
An outline of the steps: as §1

Compound in experiment [4]: CC(=O)Nc1cccc(-n2c(=O)n(C3CC3)c(=O)c3c(Nc4ccc(I)cc4F)n(C)c(=O)c(C)c32)c1 [Trametinib] + Nc1ncn([C@H]2C[C@H](O)[C@@H](CO)O2)c(=O)n1 [Decitabine] (partner 2 µM)
The method in brief:
as §1

Consider COR-L 105, for which the relative viability is 0.402 in experiment [1] (first compound 0.02 µM); 0.462 in experiment [1] (first compound 0.06325 µM); 0.396 in experiment [1] (first compound 0.2 µM); 0.512 in experiment [1] (first compound 0.6325 µM); 0.506 in experiment [1] (first compound 2 µM); 0.311 in experiment [2] (first compound 0.02 µM). The relative viability in experiment [2] (first compound 0.06325 µM) turned out to be 0.311; in experiment [2] (first compound 0.2 µM) it was 0.378; in experiment [2] (first compound 0.6325 µM), 0.364; in experiment [2] (first compound 2 µM) it was 0.36; in experiment [3] (first compound 0.02 µM), 0.33; in experiment [3] (first compound 0.06325 µM), 0.334. The relative viability is 0.362 in experiment [3] (first compound 0.2 µM); 0.344 in experiment [3] (first compound 0.6325 µM); 0.397 in experiment [3] (first compound 2 µM); 0.64 in experiment [4] (first compound 0.0025 µM); 0.609 in experiment [4] (first compound 0.007906 µM); 0.486 in experiment [4] (first compound 0.025 µM). Moreover, the values for the relative viability in experiment [4] (first compound 0.07906 µM) and in experiment [4] (first compound 0.25 µM) were 0.375 and 0.36, respectively.
As to NCI-H322M, the relative viability in experiment [1] (first compound 0.02 µM) is 0.476; in experiment [1] (first compound 0.06325 µM) it was 0.503; in experiment [1] (first compound 0.2 µM), 0.51; in experiment [1] (first compound 0.6325 µM), 0.468; in experiment [1] (first compound 2 µM), 0.553; in experiment [2] (first compound 0.02 µM), 0.46. Further, the relative viability in experiment [2] (first compound 0.06325 µM) turned out to be 0.5; in experiment [2] (first compound 0.2 µM), 0.485; in experiment [2] (first compound 0.6325 µM) it was 0.507; in experiment [2] (first compound 2 µM) it was 0.639; in experiment [3] (first compound 0.02 µM) it was 0.566; in experiment [3] (first compound 0.06325 µM), 0.631. Moreover, the relative viability in experiment [3] (first compound 0.2 µM) was 0.597; in experiment [3] (first compound 0.6325 µM), 0.548; in experiment [3] (first compound 2 µM) it was 0.631; in experiment [4] (first compound 0.0025 µM) it was 0.691; in experiment [4] (first compound 0.007906 µM) it was 0.681; in experiment [4] (first compound 0.025 µM) it was 0.631. For the same cell line, the results for the relative viability in experiment [4] (first compound 0.07906 µM) and in experiment [4] (first compound 0.25 µM) were 0.585 and 0.566, respectively.
Turning to HARA, the relative viability in experiment [1] (first compound 0.02 µM) was found to be 0.673; in experiment [1] (first compound 0.06325 µM), 0.635; in experiment [1] (first compound 0.6325 µM) it was 0.605; in experiment [1] (first compound 2 µM) it was 0.492; in experiment [2] (first compound 0.02 µM), 0.0897; in experiment [2] (first compound 0.06325 µM), 0.112. The relative viability stood at 0.0723 in experiment [2] (first compound 0.6325 µM); 0.0941 in experiment [2] (first compound 2 µM); 0.703 in experiment [3] (first compound 0.02 µM); 0.653 in experiment [3] (first compound 0.06325 µM); 0.665 in experiment [3] (first compound 0.2 µM); 0.857 in experiment [3] (first compound 0.6325 µM). In addition, the relative viability amounted to 0.768 in experiment [3] (first compound 2 µM); 0.606 in experiment [4] (first compound 0.0025 µM); 0.469 in experiment [4] (first compound 0.007906 µM); 0.474 in experiment [4] (first compound 0.025 µM); 0.421 in experiment [4] (first compound 0.07906 µM); 0.422 in experiment [4] (first compound 0.25 µM).
For the cell line NCI-H2023, the relative viability in experiment [1] (first compound 0.02 µM) is 0.528; in experiment [1] (first compound 0.06325 µM), 0.571; in experiment [1] (first compound 0.6325 µM), 0.378; in experiment [1] (first compound 2 µM) it was 0.43; in experiment [2] (first compound 0.02 µM) it was 0.282; in experiment [2] (first compound 0.06325 µM), 0.267. For the same cell line, the relative viability in experiment [2] (first compound 0.2 µM) amounted to 0.352; in experiment [2] (first compound 0.6325 µM) it was 0.249; in experiment [2] (first compound 2 µM) it was 0.237; in experiment [3] (first compound 0.02 µM) it was 0.709; in experiment [3] (first compound 0.06325 µM), 0.739; in experiment [3] (first compound 0.2 µM), 0.222. In addition, the relative viability in experiment [3] (first compound 0.6325 µM) worked out at 0.652; in experiment [3] (first compound 2 µM), 0.684; in experiment [4] (first compound 0.0025 µM), 0.211; in experiment [4] (first compound 0.007906 µM) it was 0.187; in experiment [4] (first compound 0.025 µM) it was 0.237; in experiment [4] (first compound 0.07906 µM), 0.207. Also, the relative viability in experiment [4] (first compound 0.25 µM) was 0.154.
With NCI-H1437, the relative viability in experiment [1] (first compound 0.02 µM) was found to be 0.596; in experiment [1] (first compound 0.06325 µM) it was 0.593; in experiment [1] (first compound 0.2 µM), 0.545; in experiment [1] (first compound 0.6325 µM), 0.453; in experiment [1] (first compound 2 µM), 0.531; in experiment [2] (first compound 0.02 µM) it was 0.39. Moreover, the relative viability in experiment [2] (first compound 0.06325 µM) is 0.427; in experiment [2] (first compound 0.2 µM) it was 0.417; in experiment [2] (first compound 0.6325 µM) it was 0.438; in experiment [2] (first compound 2 µM), 0.463; in experiment [3] (first compound 0.02 µM) it was 0.837; in experiment [3] (first compound 0.06325 µM), 0.842. Besides, the relative viability in experiment [3] (first compound 0.2 µM) stood at 0.708; in experiment [3] (first compound 0.6325 µM), 0.841; in experiment [3] (first compound 2 µM), 0.938; in experiment [4] (first compound 0.0025 µM), 0.574; in experiment [4] (first compound 0.007906 µM), 0.471; in experiment [4] (first compound 0.025 µM), 0.557. The relative viability in experiment [4] (first compound 0.07906 µM) is 0.394; in experiment [4] (first compound 0.25 µM), 0.431.
BEN: the relative viability was 1.05 in experiment [1] (first compound 0.02 µM); 0.981 in experiment [1] (first compound 0.06325 µM); 1 in experiment [1] (first compound 0.2 µM); 0.966 in experiment [1] (first compound 0.6325 µM); 1.18 in experiment [1] (first compound 2 µM); 0.475 in experiment [2] (first compound 0.02 µM). In addition, the relative viability in experiment [2] (first compound 0.06325 µM) was 0.445; in experiment [2] (first compound 0.2 µM), 0.443; in experiment [2] (first compound 0.6325 µM) it was 0.634; in experiment [2] (first compound 2 µM), 0.761; in experiment [3] (first compound 0.02 µM), 0.685; in experiment [3] (first compound 0.06325 µM) it was 0.718. In addition, the relative viability was 0.559 in experiment [3] (first compound 0.2 µM); 0.585 in experiment [3] (first compound 0.6325 µM); 0.785 in experiment [3] (first compound 2 µM); 0.768 in experiment [4] (first compound 0.0025 µM); 0.663 in experiment [4] (first compound 0.007906 µM); 0.5 in experiment [4] (first compound 0.025 µM). The relative viability is 0.506 in experiment [4] (first compound 0.07906 µM) and 0.654 in experiment [4] (first compound 0.25 µM).
In the case of LXF-289, the relative viability in experiment [1] (first compound 0.02 µM) amounted to 0.677; in experiment [1] (first compound 0.06325 µM), 0.679; in experiment [1] (first compound 0.2 µM) it was 0.739; in experiment [1] (first compound 0.6325 µM), 0.717; in experiment [1] (first compound 2 µM), 0.72; in experiment [2] (first compound 0.02 µM) it was 0.14. Further, the relative viability amounted to 0.195 in experiment [2] (first compound 0.06325 µM); 0.217 in experiment [2] (first compound 0.2 µM); 0.213 in experiment [2] (first compound 0.6325 µM); 0.182 in experiment [2] (first compound 2 µM); 0.889 in experiment [3] (first compound 0.02 µM); 0.882 in experiment [3] (first compound 0.06325 µM). Further, the relative viability stood at 0.905 in experiment [3] (first compound 0.2 µM); 0.911 in experiment [3] (first compound 0.6325 µM); 0.884 in experiment [3] (first compound 2 µM); 0.399 in experiment [4] (first compound 0.0025 µM); 0.408 in experiment [4] (first compound 0.007906 µM); 0.385 in experiment [4] (first compound 0.025 µM). Further, the relative viability in experiment [4] (first compound 0.07906 µM) was 0.319; in experiment [4] (first compound 0.25 µM) it was 0.391.
